Broadly, the IC50 is the concentration that gives 50% inhibition.

Molecules are shown by their SMILES.

The subject of the first assay is T. cruzi-infected H9C2 cardiomyocytes, high-content imaging. Description: intracellular T. cruzi amastigote inhibition, imaging, H9C2 host cardiomyocytes, host toxicity (AID 1159565).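 Note: infected cells incubated 72 h after plating.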 To be noted: measured here: H9C2 host cell toxicity.
Take `O=C(c1ccc(Cl)cc1)c1ccc(OC(=O)N2CCOCC2)cc1`: the IC50 was greater than 50000 nM. On the same count and under the same terms, under `CS(=O)(=O)c1ccccc1C(=O)N(Cc1ccccc1)c1ccccc1` stands greater than 50000 nM; under `CC(c1cc(Cl)cc(Cl)c1)N(C)c1ncc2c(N)nc(N)nc2n1` (stereo not drawn), 7900 nM. Same read-out and setting: under `CN(C)S(=O)(=O)c1ccc(-c2cnc(N)c(-c3nc4ccc(F)cc4[nH]3)c2)cc1` stands 1300 nM; under `Cn1nc(-c2ccc(NC(=O)Cc3ccccc3Cl)cc2)c2c(N)ncnc21`, 7900 nM; under `Cc1ccccc1NS(=O)(=O)c1ccc2[nH]cc(C(=O)NC3CCCC3)c(=O)c2c1`, 20000 nM.

`CCCc1cc(C(=O)Nc2ncc(-c3cccc(Br)c3)n2C)n[nH]1` had an IC50 greater than 50000 nM. For the molecule `CNC(=O)C1Cc2ccccc2N1C(=O)Cc1ccc(OC)cc1` (stereo not drawn), the IC50 is greater than 50000 nM. On the same count and under the same terms, then `N#Cc1cccc(CN2CCC(c3nc(-c4ccc(C(F)(F)F)nc4)no3)CC2)c1`, with greater than 50000 nM; and `O=C(CN(Cc1ccccn1)Cc1ccccn1)NCc1ccc(-c2csnn2)cc1`, with greater than 79000 nM.

Take `O=C(NCCc1nc(-c2ccc(F)c(F)c2)n[nH]1)C1CCCCC1`: the half-maximal inhibitory concentration (IC50) is greater than 50000 nM. On the same count and under the same terms, under `O=C(c1ccccc1)N1CCC(C(=O)N2CCC(Oc3ccccc3Cl)CC2)CC1` stands greater than 50000 nM. For `NC(=O)c1ccsc1NC(=O)c1ccc([N+](=O)[O-])s1`, the half-inhibitory concentration (IC50) was greater than 50000 nM. Regarding `CN(C)S(=O)(=O)c1cccc(CSc2nnc(-c3ccc4c(c3)OCO4)o2)c1`, the IC50 was greater than 50000 nM. Turning to `Cc1ccc(NC(=O)c2ccc(Cl)c(NC(=O)c3ccc([N+](=O)[O-])cc3)c2)cc1`, the half-inhibitory concentration (IC50) was greater than 50000 nM. Still for that read-out and setting: then `COc1ccc2ncc(=O)n(CCN3CC[C@H](NCc4ncc(Cl)c5[nH]ncc45)[C@H](O)C3)c2n1`, with greater than 50000 nM; and `COc1ccc(-c2csc(NC(=O)c3ccc([N+](=O)[O-])s3)n2)cc1OC`, with 6300 nM; and `COc1ccc2ncc(Cl)c(CCN3CC[C@H](NCc4cc5c(cn4)OCS5)[C@@H](O)C3)c2n1`, with 10000 nM. Still for that read-out and setting: under `CNc1cc(C)nc(C2CN(C(=O)c3n[nH]c4ccccc34)CCO2)c1` (stereo not drawn) stands greater than 50000 nM. In turn, `CN(C)Cc1ccc(-c2ccc(S(=O)(=O)NCC3CCCO3)c(F)c2)cc1` (stereo not drawn) registered an IC50 of 63000 nM. Still for that read-out and setting: under `C[C@@H](Oc1cc(-n2cnc3ccc(O[C@H]4CCNC4)cc32)sc1C(N)=O)c1ccccc1Cl` stands 630 nM. On the same count and under the same terms, under `CC1CN(Cc2ccc(C#N)cc2)CCN1c1ccc(NC(=O)c2ccccc2F)cc1` (stereo not drawn) stands greater than 50000 nM. On the same count and under the same terms, under `Cc1[nH]n2c(=O)c3c(nc2c1-c1ccc(F)cc1)CCCC3` stands greater than 50000 nM. As to `COc1ccccc1-n1c(SCC(=O)Nc2ccc3c(c2)OCO3)nc2c(c1=O)SCC2`, the IC50 is greater than 50000 nM. With `COc1ccc2nc(N(Cc3cccnc3)C(=O)C3CCC3)sc2c1`, the half-inhibitory concentration (IC50) is greater than 50000 nM. Still for that read-out and setting: under `Cc1ccc(C)c(CN2C(=O)NC3(CCc4ccccc43)C2=O)c1` (stereo not drawn) stands greater than 50000 nM. Same read-out and setting: then `Cc1nn(-c2nc(N)nc(-c3ccccn3)n2)c(C)c1Cc1ccccc1`, with 20000 nM; and `CC(C)(C)Nc1nc(-c2ccccn2)nc2ccccc12`, with 320 nM.

Still in this assay, the particulars now being: measured here: amastigotes per cell.
In turn, `O=c1ccn(-c2ccc([N+](=O)[O-])cc2Cl)c2ccc(F)cc12` gave an IC50 of 1300 nM.

In turn, `O=C(Nc1ccccc1)Nc1nc(-c2ccccn2)cs1` had a concentration for half-maximal inhibition (IC50) of 630 nM. Still for that read-out and setting: under `O=C(CSc1ccc(-c2ccccn2)nn1)Nc1ccc(Cl)cc1` stands 2000 nM; under `Cn1nc([N+](=O)[O-])nc1Oc1ccc(C(=O)c2ccccc2)cc1`, 130 nM; under `O=C(CN1CCN(S(=O)(=O)c2cccc([N+](=O)[O-])c2)CC1)Nc1ccc(Oc2ccccc2)cc1`, 1300 nM. Still for that read-out and setting: then `CN(C)c1ncc(-c2cncn2CCOc2ccc(Cl)cc2)cn1`, with 200 nM. In turn, `CC(C)(C)c1cc(NC2CC2)nc(-c2ccccn2)n1` showed an IC50 of 1300 nM. Still for that read-out and setting: then `O=C(Nc1ccc(Br)cn1)c1ccc(Cn2cnc([N+](=O)[O-])n2)cc1`, with 79 nM; and `CCC(c1ccc(F)cc1)n1cncc1-c1cnn(C)c1` (stereo not drawn), with 320 nM; and `Cc1cc(Br)sc1CNCCCNc1cc(=O)c2ccccc2[nH]1`, with 500 nM.

Consider `Cc1cc2nc(CN(C)Cc3ncccc3C)[nH]c2cc1C`, for which the half-inhibitory concentration (IC50) came out at 500 nM. As for `O=C(NCCNc1noc(-c2ccc([N+](=O)[O-])cc2)n1)c1ccc(Cl)cc1`, the 50% inhibitory concentration (IC50) came out at 1300 nM. The same measure, in the same setting: under `COc1ccccc1-c1c(C)[nH]c2nc(N)nc(C)c12` stands 130 nM; under `O=S(=O)(NCC(c1cccnc1)N1CCN(c2ccc(F)cc2)CC1)c1cccs1` (stereo not drawn), 130 nM; under `Cc1ccc2nc(N(Cc3cccnc3)C(=O)CCc3ccccc3)sc2c1`, 32 nM. The same measure, in the same setting: then `Cc1ccc(C)c(OC2CCN(C(=O)C(C)n3ccnc3)CC2)c1` (stereo not drawn), with 320 nM; and `Cc1c([N+](=O)[O-])c(C(=O)Nc2sc3c(c2C#N)CCC(C)C3)nn1C` (stereo not drawn), with 1600 nM. On the same count and under the same terms, under `CCOc1ccc(CN(C)Cc2nc(N)nc(Nc3ccc(C)cc3)n2)cc1` stands 5000 nM; under `O=C(NCc1ccc(-n2cccc2)cc1)c1nc(Cn2ccc([N+](=O)[O-])n2)no1`, 1300 nM; under `O=C(NCc1nnc2n1CCCCC2)c1csc(-c2ccccc2)n1`, 2000 nM. `Cc1cnc(Nc2cc(Cc3ccccc3)nc(NC3CCC(O)CC3)n2)s1` (stereo not drawn): the concentration for half-maximal inhibition (IC50) came to 50 nM. Molecule `Cc1nn(-c2nc(N)nc(-c3ccccn3)n2)c(N)c1-c1ccccc1` had a 50% inhibitory concentration (IC50) of 1300 nM.

Take `O=C(CSc1nnc(-c2ccc3c(c2)OCO3)o1)N(Cc1ccco1)CC(F)(F)F`: the IC50 was determined as 2500 nM. Same read-out and setting: then `Cc1cc(C)nc(N2CCC(N(Cc3cccnc3)C(=O)c3cccc(C#N)c3)CC2)n1`, with 400 nM; and `CN(C)Cc1cccc(Nc2nccc(-c3ccc(NCCN)c(C#N)c3)n2)c1`, with 1600 nM. `COc1ccc2c(Cl)c(C(=O)N3CCC3)sc2c1Cl` came in with an IC50 of 790 nM. On the same count and under the same terms, then `CCc1ccccc1[C@@H](C)NC(=O)c1cnc2c(cnn2CC)c1NC1CCN(C(N)=O)CC1`, with 40000 nM; and `O=C(c1ccc(Cl)cc1)c1ccc(OC(=O)N2CCOCC2)cc1`, with 6300 nM. On to `CS(=O)(=O)c1ccccc1C(=O)N(Cc1ccccc1)c1ccccc1`, for which the IC50 came to 40000 nM. Same read-out and setting: under `CC(c1cc(Cl)cc(Cl)c1)N(C)c1ncc2c(N)nc(N)nc2n1` (stereo not drawn) stands 1 nM.

Turning to `CN(C)S(=O)(=O)c1ccc(-c2cnc(N)c(-c3nc4ccc(F)cc4[nH]3)c2)cc1`, the IC50 was greater than 50000 nM.

In turn, `Cn1nc(-c2ccc(NC(=O)Cc3ccccc3Cl)cc2)c2c(N)ncnc21` gave an IC50 of 1000 nM. In other words, the single-digit micromolar range. On the same count and under the same terms, under `Cc1ccccc1NS(=O)(=O)c1ccc2[nH]cc(C(=O)NC3CCCC3)c(=O)c2c1` stands 25000 nM.

Take `CCCc1cc(C(=O)Nc2ncc(-c3cccc(Br)c3)n2C)n[nH]1`: the half-inhibitory concentration (IC50) amounted to 2500 nM. This IC50 is about 10-fold lower than that of the molecule before. Same read-out and setting: under `CNC(=O)C1Cc2ccccc2N1C(=O)Cc1ccc(OC)cc1` (stereo not drawn) stands greater than 50000 nM; under `N#Cc1cccc(CN2CCC(c3nc(-c4ccc(C(F)(F)F)nc4)no3)CC2)c1`, 2500 nM; under `O=C(CN(Cc1ccccn1)Cc1ccccn1)NCc1ccc(-c2csnn2)cc1`, 7900 nM. Still for that read-out and setting: under `O=C(NCCc1nc(-c2ccc(F)c(F)c2)n[nH]1)C1CCCCC1` stands 1600 nM; under `O=C(c1ccccc1)N1CCC(C(=O)N2CCC(Oc3ccccc3Cl)CC2)CC1`, 25000 nM; under `NC(=O)c1ccsc1NC(=O)c1ccc([N+](=O)[O-])s1`, 100 nM.

The molecule `CN(C)S(=O)(=O)c1cccc(CSc2nnc(-c3ccc4c(c3)OCO4)o2)c1` displayed an IC50 of 50 nM. This IC50 is about 2-fold lower than that of the molecule before. Same read-out and setting: then `Cc1ccc(NC(=O)c2ccc(Cl)c(NC(=O)c3ccc([N+](=O)[O-])cc3)c2)cc1`, with 200 nM; and `COc1ccc2ncc(=O)n(CCN3CC[C@H](NCc4ncc(Cl)c5[nH]ncc45)[C@H](O)C3)c2n1`, with 1600 nM; and `COc1ccc(-c2csc(NC(=O)c3ccc([N+](=O)[O-])s3)n2)cc1OC`, with 79 nM. The same measure, in the same setting: under `COc1ccc2ncc(Cl)c(CCN3CC[C@H](NCc4cc5c(cn4)OCS5)[C@@H](O)C3)c2n1` stands 100 nM; under `CNc1cc(C)nc(C2CN(C(=O)c3n[nH]c4ccccc34)CCO2)c1` (stereo not drawn), 790 nM. On the same count and under the same terms, then `CN(C)Cc1ccc(-c2ccc(S(=O)(=O)NCC3CCCO3)c(F)c2)cc1` (stereo not drawn), with 2000 nM; and `C[C@@H](Oc1cc(-n2cnc3ccc(O[C@H]4CCNC4)cc32)sc1C(N)=O)c1ccccc1Cl`, with 6300 nM; and `CC1CN(Cc2ccc(C#N)cc2)CCN1c1ccc(NC(=O)c2ccccc2F)cc1` (stereo not drawn), with greater than 50000 nM. In turn, `Cc1[nH]n2c(=O)c3c(nc2c1-c1ccc(F)cc1)CCCC3` returned an IC50 of 790 nM. Still for that read-out and setting: under `COc1ccccc1-n1c(SCC(=O)Nc2ccc3c(c2)OCO3)nc2c(c1=O)SCC2` stands 7900 nM; under `COc1ccc2nc(N(Cc3cccnc3)C(=O)C3CCC3)sc2c1`, 100 nM.

With `Cc1ccc(C)c(CN2C(=O)NC3(CCc4ccccc43)C2=O)c1` (stereo not drawn), the 50% inhibitory concentration (IC50) was found to be 7900 nM.

`Cc1nn(-c2nc(N)nc(-c3ccccn3)n2)c(C)c1Cc1ccccc1` had a concentration for half-maximal inhibition (IC50) of 2000 nM. `CC(C)(C)Nc1nc(-c2ccccn2)nc2ccccc12` showed an IC50 of 1300 nM.

The values are drawn from PubChem BioAssay AID1159565 (GlaxoSmithKline (GSK), 2015).
